Test results from the supplement of paper PMC5908809.

Columns and labels:
KHYG-1 (IL-2 2.5 ng/mL) [1] = assay: percent inhibition of viability; higher = more inhibition; details: 72 h
[2] = tested on: normal primary NK cells, pool 2 (3 donors) (IL-2 2.5 ng/mL); assay: as above; details: 72 h
DERL-7 (IL-2 2.5 ng/mL) [3] = assay: as above; details: 72 h
NKL (IL-2 2.5 ng/mL) [4] = assay: as above; details: 72 h
KAI3 (IL-2 2.5 ng/mL) [5] = assay: as above; details: 72 h
NK-92 (IL-2 2.5 ng/mL) [6] = assay: as above; details: 72 h
YT (IL-2 2.5 ng/mL) [7] = assay: as above; details: 72 h
[8] = tested on: normal primary NK cells, pool 3 (3 donors) (IL-2 2.5 ng/mL); assay: as above; details: 72 h
SNK-6 (IL-2 2.5 ng/mL) [9] = assay: as above; details: 72 h
[10] = tested on: normal primary NK cells, pool 1 (3 donors), resting (IL-2 0 ng/mL); assay: as above; details: 72 h
IMC-1 (IL-2 20 ng/mL) [11] = assay: as above; details: 72 h
NK-YS (IL-2 2.5 ng/mL) [12] = assay: as above; details: 72 h
[13] = tested on: normal primary NK cells, pool 1 (3 donors) (IL-2 2.5 ng/mL); assay: as above; details: 72 h
[14] = tested on: normal NK cells expanded with K562-aAPC; assay: drug sensitivity score (DSS) (DSS units); higher = more sensitive; extreme values may be limits of the assay; details: 72 h; IL-2 2.5 ng/mL
Protocol: (§1)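 Drug sensitivity and resistance testing on K562-aAPC-expanded normal NK cells: 5 concentrations (10-fold steps over a 10,000-fold range), 72 h at 37 °C, viability by CellTiter-Glo normalised to DMSO and benzethonium chloride controls; DSS from the fitted curve.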

KHYG-1 (IL-2 2.5 ng/mL) [15] = assay: as above; details: 72 h
[16] = tested on: normal primary NK cells, pool 2 (3 donors) (IL-2 2.5 ng/mL); assay: as above; details: 72 h
DERL-7 (IL-2 2.5 ng/mL) [17] = assay: as above; details: 72 h
NKL (IL-2 2.5 ng/mL) [18] = assay: as above; details: 72 h
KAI3 (IL-2 2.5 ng/mL) [19] = assay: as above; details: 72 h
NK-92 (IL-2 2.5 ng/mL) [20] = assay: as above; details: 72 h
YT (IL-2 2.5 ng/mL) [21] = assay: as above; details: 72 h
[22] = tested on: normal primary NK cells, pool 3 (3 donors) (IL-2 2.5 ng/mL); assay: as above; details: 72 h
SNK-6 (IL-2 2.5 ng/mL) [23] = assay: as above; details: 72 h
[24] = tested on: normal primary NK cells, pool 1 (3 donors), resting (IL-2 0 ng/mL); assay: as above; details: 72 h
IMC-1 (IL-2 20 ng/mL) [25] = assay: as above; details: 72 h
NK-YS (IL-2 2.5 ng/mL) [26] = assay: as above; details: 72 h
[27] = tested on: normal primary NK cells, pool 1 (3 donors) (IL-2 2.5 ng/mL); assay: as above; details: 72 h
[28] = tested on: normal NK cells expanded with K562-aAPC; assay: percent inhibition of viability; higher = more inhibition; details: 72 h, IL-2 2.5 ng/mL
Protocol: as §1

CC[C@@]1(O)C(=O)OCc2c1cc1n(c2=O)Cc2cc3ccccc3nc2-1 [Camptothecin] (max concentration tested 5000 nM)
percent inhibition of viability [%]
Details	0.5 nM	5 nM	50 nM	500 nM	5000 nM
DERL-7 (IL-2 2.5 ng/mL) [3]	1	20.8	97.7	92.9	100
IMC-1 (IL-2 20 ng/mL) [11]	-1.32	4.46	99.7	100	100
KAI3 (IL-2 2.5 ng/mL) [5]	11.5	49.2	86.9	62.4	97.2
KHYG-1 (IL-2 2.5 ng/mL) [1]	-0.47	50.6	101	102	99.9
NK-92 (IL-2 2.5 ng/mL) [6]	4.55	41.4	101	102	99.6
NK-YS (IL-2 2.5 ng/mL) [12]	0.45	66.1	93.3	87.5	100
NKL (IL-2 2.5 ng/mL) [4]	11.3	91.1	102	98.4	92.3
SNK-6 (IL-2 2.5 ng/mL) [9]	19.8	56.5	96.8	98	99.4
YT (IL-2 2.5 ng/mL) [7]	-3.33	5.46	90	100	99.6
[2]	-7.85	0.79	8.18	26.8	60.9
[8]	0.98	3.16	10.9	36.9	60.6
[10]	-1.99	11.5	-26.2	-25.7	-5.52
[13]	-11.7	2.76	-4.81	19.9	41.6
[28]	4.05	11.2	54.7	59.6	97.7

Details	drug sensitivity score
DERL-7 (IL-2 2.5 ng/mL) [17]	33.3
IMC-1 (IL-2 20 ng/mL) [25]	31
KAI3 (IL-2 2.5 ng/mL) [19]	36.2
KHYG-1 (IL-2 2.5 ng/mL) [15]	36.8
NK-92 (IL-2 2.5 ng/mL) [20]	35.6
NK-YS (IL-2 2.5 ng/mL) [26]	38.3
NKL (IL-2 2.5 ng/mL) [18]	43.1
SNK-6 (IL-2 2.5 ng/mL) [23]	37.5
YT (IL-2 2.5 ng/mL) [21]	29.5
[14]	19.8
[16]	6.31
[22]	8.23
[24]	0
[27]	4.65
